Data as given in PubChem BioAssay AID248 (DTP/NCI, 2004).
Toxic doses and inconclusive results are not listed.

Test system: L1210 leukemia ip in BDF1 mice, survival T/C
Experiment: NCI In Vivo Anticancer Drug Screen. Data for tumor model L1210 Leukemia (intraperitoneal) in B6D2F1 (BDF1) mice
Settings: endpoint: mean survival time, higher = longer survival
Method in brief: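 Mice bearing the transplanted tumor received compound or vehicle. Survival of the treated group was divided by that of the vehicle-treated control group to give the ratio.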

[1] = dose: 100.0 mg/kg/injection, schedule: Q04DX002 (ip), vehicle: Klucel (hydroxypropylcellulose) (HPC)
[2] = dose: 100.0 mg/kg/injection, schedule: Q01DX001 (ip), vehicle: saline
[3] = dose: 200.0 mg/kg/injection, schedule: Q01DX001 (ip), vehicle: saline
[4] = dose: 100.0 mg/kg/injection, schedule: Q01DX001 (ip), vehicle: Klucel (hydroxypropylcellulose) (HPC)
[5] = dose: 200.0 mg/kg/injection, schedule: Q01DX001 (ip), vehicle: Klucel (hydroxypropylcellulose) (HPC)
[6] = dose: 50.0 mg/kg/injection, schedule: Q01DX001 (ip), vehicle: saline
[7] = dose: 400.0 mg/kg/injection, schedule: Q01DX001 (ip), vehicle: saline
[8] = dose: 200.0 mg/kg/injection, schedule: Q04DX002 (ip), vehicle: Klucel (hydroxypropylcellulose) (HPC)
[9] = dose: 400.0 mg/kg/injection, schedule: Q04DX002 (ip), vehicle: Klucel (hydroxypropylcellulose) (HPC)
[10] = dose: 50.0 mg/kg/injection, schedule: Q01DX009 (ip), vehicle: Klucel (hydroxypropylcellulose) (HPC)
[11] = dose: 50.0 mg/kg/injection, schedule: Q04DX003 (ip), vehicle: Klucel (hydroxypropylcellulose) (HPC)
[12] = dose: 100.0 mg/kg/injection, schedule: Q01DX009 (ip), vehicle: Klucel (hydroxypropylcellulose) (HPC)
[13] = dose: 100.0 mg/kg/injection, schedule: Q04DX003 (ip), vehicle: Klucel (hydroxypropylcellulose) (HPC)
[14] = dose: 200.0 mg/kg/injection, schedule: Q01DX009 (ip), vehicle: Klucel (hydroxypropylcellulose) (HPC)
[15] = dose: 200.0 mg/kg/injection, schedule: Q04DX003 (ip), vehicle: Klucel (hydroxypropylcellulose) (HPC)
[16] = dose: 400.0 mg/kg/injection, schedule: Q01DX009 (ip), vehicle: Klucel (hydroxypropylcellulose) (HPC)
[17] = dose: 400.0 mg/kg/injection, schedule: Q04DX003 (ip), vehicle: Klucel (hydroxypropylcellulose) (HPC)
[18] = dose: 25.0 mg/kg/injection, schedule: Q01DX009 (ip), vehicle: Klucel (hydroxypropylcellulose) (HPC)
[19] = dose: 100.0 mg/kg/injection, schedule: Q01DX001 (ip), vehicle: carboxymethylcellulose (CMC)
[20] = dose: 200.0 mg/kg/injection, schedule: Q01DX001 (ip), vehicle: carboxymethylcellulose (CMC)
[21] = dose: 400.0 mg/kg/injection, schedule: Q01DX001 (ip), vehicle: carboxymethylcellulose (CMC)
[22] = dose: 100.0 mg/kg/injection, schedule: Q04DX003 (ip), vehicle: saline
[23] = dose: 200.0 mg/kg/injection, schedule: Q04DX003 (ip), vehicle: saline
[24] = dose: 400.0 mg/kg/injection, schedule: Q04DX003 (ip), vehicle: saline

`O=C(c1ccccc1)c1ccc(O)c([N+](=O)[O-])c1` was tested, and the T/C (dose: 25.0 mg/kg/injection, schedule: Q04DX002 (ip), vehicle: Klucel (hydroxypropylcellulose) (HPC)) was 113 % of control, the T/C (dose: 50.0 mg/kg/injection, schedule: Q04DX002 (ip), vehicle: Klucel (hydroxypropylcellulose) (HPC)) was 100 % of control and the T/C [1] was 90 % of control.

For `COc1c2c(cc3c1C1(O)Cc4ccc5c(c4C[N+]1(C)CC3)OCO5)OCO2` (configuration not stated), the T/C [2] was 95 % of control and the T/C [3] was 91 % of control.

For `CC1(NO)CCCCC1`, the T/C [4] was 100 % of control and the T/C [5] was 94 % of control.

In the case of `N/C(=N/N=C\c1ccccc1Cl)N/N=C/c1ccccc1Cl`, the T/C (dose: 15.0 mg/kg/injection, schedule: Q01DX Z (ip), vehicle: carboxymethylcellulose (CMC)) is reported as 94 % of control, the T/C (dose: 30.0 mg/kg/injection, schedule: Q01DX Z (ip), vehicle: carboxymethylcellulose (CMC)) is reported as 100 % of control and the T/C (dose: 60.0 mg/kg/injection, schedule: Q01DX Z (ip), vehicle: carboxymethylcellulose (CMC)) is reported as 95 % of control. For the same compound, the T/C (dose: 120.0 mg/kg/injection, schedule: Q01DX Z (ip), vehicle: carboxymethylcellulose (CMC)) was 94 % of control, the T/C (dose: 120.0 mg/kg/injection, schedule: Q01DX Z (oral), vehicle: carboxymethylcellulose (CMC)) was 100 % of control and the T/C (dose: 240.0 mg/kg/injection, schedule: Q01DX Z (oral), vehicle: carboxymethylcellulose (CMC)) was 100 % of control. For the same compound, the T/C (dose: 960.0 mg/kg/injection, schedule: Q01DX Z (oral), vehicle: carboxymethylcellulose (CMC)) was 101 % of control.

With `O=C(NO)C1CCC(C(=O)NO)CC1` (configuration not stated) the T/C (dose: 100.0 mg/kg/injection, schedule: Q01DX009 (ip), vehicle: saline with Tween-80) was 92 % of control, the T/C (dose: 200.0 mg/kg/injection, schedule: Q01DX009 (ip), vehicle: saline with Tween-80) was 89 % of control and the T/C (dose: 400.0 mg/kg/injection, schedule: Q01DX009 (ip), vehicle: saline with Tween-80) was 89 % of control.

For `Nc1ccc(/C=C\C2(CCl)OCCO2)cc1`, the T/C [6] was 100 % of control, the T/C [2] was 97 % of control and the T/C [3] was 103 % of control. The T/C [7] was 94 % of control.

`CCCCC(=O)N/N=C/c1ccc(OC)c(OC)c1` was tested, and the T/C [2] was 100 % of control, the T/C [3] was 94 % of control and the T/C [7] was 91 % of control.

For `O=C1CCS(=O)O1` (configuration not stated), the T/C [1] was 100 % of control, the T/C [8] was 95 % of control and the T/C [9] was 89 % of control.

With `COC(c1ccccc1)c1ccccc1` the T/C [6] was 109 % of control, the T/C [2] was 94 % of control and the T/C [3] was 100 % of control. The T/C [7] was 94 % of control.

For `c1ccc(-c2ccc([Si](c3ccccc3)(c3ccc(-c4ccccc4)cc3)c3ccc(-c4ccccc4)cc3)cc2)cc1`, the T/C [10] was 91 % of control, the T/C [11] was 93 % of control and the T/C [12] was 93 % of control. The T/C [13] was 89 % of control, the T/C [14] was 93 % of control and the T/C [15] was 88 % of control.

With `O=C(O)CCC(=O)Nc1ccc(S(=O)(=O)Nc2nccs2)cc1` the T/C (dose: 3.5 mg/kg/injection, schedule: Q01DX009 (ip), vehicle: Klucel (hydroxypropylcellulose) (HPC)) was 93 % of control, the T/C (dose: 5.3 mg/kg/injection, schedule: Q01DX009 (ip), vehicle: Klucel (hydroxypropylcellulose) (HPC)) was 93 % of control and the T/C (dose: 8.0 mg/kg/injection, schedule: Q01DX009 (ip), vehicle: Klucel (hydroxypropylcellulose) (HPC)) was 91 % of control. For the same compound, the T/C [12] was 94 % of control, the T/C [13] was 101 % of control and the T/C [14] was 98 % of control. The T/C [15] was 103 % of control, the T/C [16] was 94 % of control and the T/C [17] was 97 % of control.

`CC1=CC(=O)CC(C)(C)C1(O)/C=C/C(C)=C/C(=O)O` (configuration not stated) was tested, and the T/C (dose: 12.5 mg/kg/injection, schedule: Q04DX003 (ip), vehicle: Klucel (hydroxypropylcellulose) (HPC)) was 93 % of control, the T/C [18] was 87 % of control and the T/C (dose: 25.0 mg/kg/injection, schedule: Q04DX003 (ip), vehicle: Klucel (hydroxypropylcellulose) (HPC)) was 96 % of control. For the same compound, the T/C [10] was 88 % of control, the T/C [11] was 88 % of control and the T/C [12] was 93 % of control. For the same compound, the T/C [13] was 96 % of control, the T/C [14] was 92 % of control and the T/C [15] was 98 % of control. The T/C [16] was 95 % of control and the T/C [17] was 102 % of control.

`Cc1ccc2ccccc2c1CC(=O)NN` was tested, and the T/C [13] was 102 % of control, the T/C [15] was 104 % of control and the T/C [17] was 104 % of control.

For `O=C(c1ccc(Cl)cc1)N1CCC(CCCc2ccccc2)CC1`, the T/C [1] was 96 % of control, the T/C [8] was 99 % of control and the T/C [9] was 96 % of control.

For `C[Si](C)(CCl)CCCO[Si](C)(C)CCl`, the T/C (dose: 50.0 mg/kg/injection, schedule: Q01DX001 (ip), vehicle: carboxymethylcellulose (CMC)) was 102 % of control, the T/C [19] was 108 % of control and the T/C [20] was 96 % of control. The T/C [21] was 98 % of control.

For `CCOC(=O)c1cc(C)nc(Cl)c1C#N`, the T/C [19] was 96 % of control, the T/C [20] was 96 % of control and the T/C [21] was 93 % of control.

`COc1cc(N(CCCl)CCCl)ccc1CN1CCCN(Cc2ccc(N(CCCl)CCCl)cc2OC)C1c1ccccc1O` was tested, and the T/C [10] was 96 % of control, the T/C [12] was 109 % of control and the T/C [13] was 110 % of control. The T/C [14] was 90 % of control and the T/C [15] was 103 % of control.

In the case of `Nc1nc(=S)c2[nH]c(N=Nc3ccc(S(=O)(=O)O)cc3)nc2[nH]1`, the T/C [18] is reported as 100 % of control, the T/C [10] is reported as 102 % of control and the T/C [11] is reported as 114 % of control. The T/C [12] was 102 % of control and the T/C [13] was 153 % of control.

With `COc1ccccc1-n1c(O)c(N=Nc2ccc(Br)cc2)c(=O)n(-c2ccc(Br)cc2)c1=S` the T/C (dose: 50.0 mg/kg/injection, schedule: Q01DX001 (ip), vehicle: Klucel (hydroxypropylcellulose) (HPC)) was 93 % of control, the T/C [4] was 109 % of control and the T/C [5] was 102 % of control.

`CSc1ncc(CO)c(Nc2ccccc2Cl)n1` was tested, and the T/C [13] was 103 % of control, the T/C [15] was 103 % of control and the T/C [17] was 95 % of control.

In the case of `CC1CCCCN1Cc1ccccc1COC(=O)c1ccc(Br)cc1` (configuration not stated), the T/C [1] is reported as 101 % of control, the T/C [8] is reported as 92 % of control and the T/C [9] is reported as 96 % of control.

`CCOC(=O)CCc1c(C(=O)OCC)[nH]c2ccc(Cl)cc12` was tested, and the T/C [1] was 96 % of control, the T/C [8] was 100 % of control and the T/C [9] was 96 % of control.

For `COc1cc([N+](=O)[O-])c2nc(C(=O)O)ccc2c1`, the T/C [6] was 116 % of control, the T/C [2] was 106 % of control and the T/C [3] was 112 % of control.

`Nc1ncnc2c1ncn2C1OC(COP(=O)(O)OP(=O)(O)OCC2OC([n+]3cccc(C=O)c3)C(O)C2O)C(O)C1O` (configuration not stated) was tested, and the T/C (dose: 80.0 mg/kg/injection, schedule: Q01DX Z (ip), vehicle: saline) was 95 % of control, the T/C (dose: 120.0 mg/kg/injection, schedule: Q01DX Z (ip), vehicle: saline) was 90 % of control and the T/C (dose: 180.0 mg/kg/injection, schedule: Q01DX Z (ip), vehicle: saline) was 97 % of control. For the same compound, the T/C (dose: 270.0 mg/kg/injection, schedule: Q01DX Z (ip), vehicle: saline) was 101 % of control.

With `CCOC(=O)c1cnc2c(ccc3cc(OC)ccc32)c1NCCCN(CC)CC` the T/C [10] was 105 % of control, the T/C [12] was 108 % of control and the T/C [14] was 94 % of control.

In the case of `CC1=C/C(=N/NC(N)=O)CC(C)C1` (configuration not stated), the T/C [22] is reported as 100 % of control, the T/C [23] is reported as 98 % of control and the T/C [24] is reported as 97 % of control.

`CC(C)(C)OC(=O)NC(Cc1cncn1Cc1ccccc1)C(=O)NC(Cc1c[nH]c2ccccc12)C(=O)OCc1ccccc1` (configuration not stated) was tested, and the T/C [22] was 97 % of control, the T/C [23] was 93 % of control and the T/C [24] was 95 % of control.

`CN1CC2([N+](=O)[O-])C=CCC([N+](=O)[O-])(C1)C2` (configuration not stated) was tested, and the T/C (dose: 25.0 mg/kg/injection, schedule: Q01DX009 (ip), vehicle: water) was 98 % of control, the T/C (dose: 50.0 mg/kg/injection, schedule: Q01DX009 (ip), vehicle: water) was 102 % of control and the T/C (dose: 100.0 mg/kg/injection, schedule: Q01DX009 (ip), vehicle: water) was 104 % of control. The T/C (dose: 200.0 mg/kg/injection, schedule: Q01DX009 (ip), vehicle: water) was 103 % of control.

`CCOc1ccc(/C=C2\C=Nc3ccccc32)cc1` was tested, and the T/C [12] was 91 % of control and the T/C [14] was 99 % of control.

In the case of `N=C(N)SCCCN`, the T/C (dose: 100.0 mg/kg/injection, schedule: Q01DX009 (ip), vehicle: saline) is reported as 108 % of control, the T/C [22] is reported as 101 % of control and the T/C [23] is reported as 100 % of control.
